Measurements reported in paper PMC6692352, “DF2726A, a new IL-8 signalling inhibitor, is able to counteract chemotherapy-induced neuropathic pain” (Scientific Reports, 2019).
“Also recorded” adds a separate entry of the source.

What was measured:
human COX1 = target: T1, human COX1 (Homo sapiens, UniProt P23219); experiment: COX1 assay, PGE2 formation from arachidonic acid, recombinant enzyme; format: biochemical
T1 construct: host or cells: Sf-9
Procedure: Protein binding in human, dog and rat plasma […]
in DMSO at a final concentration of 2 mM. […]
plasma to obtain a final concentration of 10 µM. Human, dog and rat plasma (200 µL) in triplicate […]
vials for LC-MS/MS analysis. […]
mM Tris-HCl (pH 8.0), 1.98 mM phenol and 1.02 µM hematine. Thereafter, the reaction was initiated by adding 4 µM (COX1) or 2 µM (COX2) of arachidonic acid and the mixture was incubated for 5 min at RT. For basal control measurements, arachidonic acid was omitted from the reaction mixture. Following incubation, t he reaction was stopped by the addition of 1 M HCl then 1 M Tris/HCl (pH 8.0) followed by cooling to 4°C.
The fluorescence acceptor (d2 labeled PGE2) and the fluorescence donor (anti -PGE2 antibody labeled with europium Cryptate) were then added. After 120 min, the fluorescence transfer corresponding to the amount of residual PGE2 was measured at λex=337 nm, λem=620 nm and λem=665 nm using a microplate reader (Envision, Perkin Elmer). The enzyme activity was determined by dividing the signal measured at 665 nm by that measured at 620 nm (ratio). The results were expressed as a percent age inhibition of the control enzyme activity. The standard inhibitory reference compound was Diclofenac, which was tested in each experiment at several concentrations to obtain an inhibition curve from which its IC50 value was calculated. […]

p-FAK = p-FAK western blotting in F11-derived neurons; format: cell-based; details: 24 h
TRPM8 = experiment: Western blot of DRG of oxaliplatin rats, TRPM8; format: in vivo, male Wistar rats; details: 30 mg/kg os
Procedure: Animals were sacrificed and dorsal root ganglia (DRG) (L4-L6) were removed and stored at […]. They were homogenized on ice-cold lysis buffer [20 mM Tris–HCl (pH 7.5), 10 mM NaF, 150 mM NaCl, 1% Nonidet P-40, 1 mM phenylmethylsulfonyl fluoride, 1 mM Na3VO4, leupeptin and trypsin inhibitor 10 μg/mL; 20 µl/sample, as previously described.
After 1 h, tissue lysates were obtained by centrifugation at 20,000 g for 15 min at 4 °C. Protein concentrations were estimated by the Bio-Rad protein assay using bovine serum albumin as standard.
DRG lysate proteins (30 μg) were dissolved in Laemmli sample buffer, boiled for 5 min, and separated on SDS-polyacrylamide gel elctrophoresis and transferred onto nitrocellulose membrane (240 mA for 40 min at room temperature). […] The protein bands were scanned and densitometrically analyzed with a model GS-700 imaging densitometer (Bio-Rad Laboratories, Milan, Italy). […]

[1] = tested on: CXCL1-induced hPMN chemotaxis; experiment: CXCL1-induced hPMN chemotaxis, 48-well microchemotaxis chamber; format: cell-based, human; details: hPMN pre-incubated 15 min at 37°C, migration 45 min
Excerpt: chemotherapy-induced neuropathic pain”
Benedetti, Antonio Giordano, Annamaria Cimini, Marcello Allegretti.
Chemokines were from PeproTech (London, UK). Chemicals and cell culture reagents were from Sigma Aldrich (Saint Louis, MI, USA).
Cell isolation and culture
L’Aquila, Italy. Ethical clearance was obtained to perform these experiments. Human PMNs were […]
blood cells as previously described 1.
Cell viability, as measured by Trypan Blue dye exclusion, was greater than 98%. […]
microchemotaxis chamber, as previously described 2. Briefly, 25 µl of control medium (PBS for […]
the lower compartment of the chemotaxis chamber. […]
vehicle were seeded in the upper compartment. The two compartments were separated by 5 µm pre-size polycarbonate filter (polyvinylpyrrolidone-free for PMN chemotaxis). The chamber was […]
Physicochemical characterization […]
and a turbidity-sensing device. […]
water/HBSS to a final concentration of 10 μM. Cell membrane homogenates (48 μg protein) were […]

T1 sequence (P23219 24-599): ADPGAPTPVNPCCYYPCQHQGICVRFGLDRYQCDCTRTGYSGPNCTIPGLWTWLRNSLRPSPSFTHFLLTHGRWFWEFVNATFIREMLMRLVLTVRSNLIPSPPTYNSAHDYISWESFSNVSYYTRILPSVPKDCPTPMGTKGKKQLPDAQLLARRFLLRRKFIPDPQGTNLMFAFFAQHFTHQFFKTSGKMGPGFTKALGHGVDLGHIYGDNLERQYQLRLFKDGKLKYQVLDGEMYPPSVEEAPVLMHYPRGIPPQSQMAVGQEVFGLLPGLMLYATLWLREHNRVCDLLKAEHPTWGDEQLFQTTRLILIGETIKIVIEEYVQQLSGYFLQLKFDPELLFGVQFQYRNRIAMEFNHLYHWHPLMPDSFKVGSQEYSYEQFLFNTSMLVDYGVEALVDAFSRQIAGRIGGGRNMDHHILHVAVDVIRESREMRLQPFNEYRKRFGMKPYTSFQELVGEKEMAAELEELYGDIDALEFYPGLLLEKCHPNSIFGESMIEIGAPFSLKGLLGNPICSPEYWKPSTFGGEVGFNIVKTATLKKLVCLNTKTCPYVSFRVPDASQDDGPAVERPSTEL

Question: Which results are given for `CC(C)(C(=O)O)c1ccc(Nc2nc(C(F)(F)F)cs2)cc1` [DF2726A]?
Answer: COX 1 Inhibition (50 µM) (human COX1): did not inhibit; also recorded: No Inhibition observed; p-FAK levels, oxaliplatin-treated neurons (p-FAK; DF2726A 1 µM + oxaliplatin 20 µM): decreased in the presence of DF2726A; p-FAK levels, paclitaxel-treated neurons (p-FAK; DF2726A + paclitaxel 10 nM): decreased in the presence of DF2726A; TRPM8 expression in DRG of oxaliplatin rats (TRPM8): significant reduction in the expression; IC50 [1]: 8 nM
